# Test results taken from paper PMC12504763, “Antiproliferation, 3D-multicellular spheroid and VEGFR-2 inhibitory properties of spiroindolin-2-ones with phosphonate function” (Scientific Reports, 2025).
# Read-outs that look alike come from different tables or passages of the source.
# What was measured:
# [1] = tested on: HCT116 (colon) cancer cell line; test: 2D-monolayer antiproliferation (MTT) against HCT116; assay type: cell-based, human; conditions: for IC50: Homo sapiens, HCT-116; for SI (selectivity index) HCT116: IC50 of RPE1 normal cell/IC50 of HCT116
# [2] = tested on: PaCa2 (pancreatic) cancer cell line; test: 2D-monolayer antiproliferation (MTT) against PaCa2; assay type: cell-based, human; conditions: for 1/(observed property): 1/observed IC50 (μM), PaCa2; for IC50: Homo sapiens, PaCa-2, MTT, 72 h incubation, PaCa2 pancreatic, read-out: IC50, μM ± SEM PaCa2; for SI (selectivity index) PaCa2: IC50 of RPE1 normal cell/IC50 of PaCa2
# [3] = tested on: MCF7 (breast) cancer cell line; test: 2D-monolayer antiproliferation (MTT) against MCF7; assay type: cell-based, human; conditions: for IC50: Homo sapiens, MTT, 72 h incubation, MCF7 breast, read-out: IC50, μM ± SEM MCF7; for SI (selectivity index) MCF7: IC50 of RPE1 normal cell/IC50 of MCF7
# [4] = tested on: A549 (lung) cancer cell line; test: 2D-monolayer antiproliferation (MTT) against A549; assay type: cell-based, human; conditions: for IC50: Homo sapiens, MTT, 72 h incubation, A549 lung, read-out: IC50, μM ± SEM A549; for SI (selectivity index) A549: IC50 of RPE1 normal cell/IC50 of A549
# [5] = tested on: RPE1 (normal human immortalized retinal pigment epithelial cell line); test: cells; assay type: cell-based; conditions: for IC50: Homo sapiens, RPE-1, MTT, normal RPE1 cell, read-out: IC50, μM ± SEM RPE1; for selectivity index (SI): IC50 against RPE1 compared to the tested cancer cell line(s), in words
# VEGFR-2 [6] = target: T1, VEGFR-2 (Homo sapiens, UniProt P35968); test: cell-based; assay type: cell-based; conditions: for inhibition at 10 µM: HCT-116, HCT116; for VEGFR-2 pg/mL ± SEM HCT116: at 10 μM, control 317.80 ± 3.5
# T1 construct: endogenous in cells; host or cells: HCT116, PaCa2, MCF7 (human cancer cell lines, ATCC origin)
# VEGFR-2 [7] = target: T1, VEGFR-2; test: cell-based; assay type: cell-based; conditions: for inhibition at 10 µM: PaCa-2, PaCa2; for VEGFR-2 pg/mL ± SEM PaCa2: at 10 μM, control 326.80 ± 1.9
# VEGFR-2 [8] = target: T1, VEGFR-2; test: cell-based; assay type: cell-based; conditions: for inhibition at 10 µM: MCF7; for VEGFR-2 pg/mL ± SEM MCF7: at 10 μM, control 258.70 ± 2.3
# COX-1 = target: T2, COX-1 (Ovis aries, UniProt P05979); test: biochemical; conditions: 3 replicates, read-out: % Inhibition of COX-1 ± SEM
# T2 construct: purchased BioVision incorporated USA K548–100
# T2 sequence (P05979 25-600): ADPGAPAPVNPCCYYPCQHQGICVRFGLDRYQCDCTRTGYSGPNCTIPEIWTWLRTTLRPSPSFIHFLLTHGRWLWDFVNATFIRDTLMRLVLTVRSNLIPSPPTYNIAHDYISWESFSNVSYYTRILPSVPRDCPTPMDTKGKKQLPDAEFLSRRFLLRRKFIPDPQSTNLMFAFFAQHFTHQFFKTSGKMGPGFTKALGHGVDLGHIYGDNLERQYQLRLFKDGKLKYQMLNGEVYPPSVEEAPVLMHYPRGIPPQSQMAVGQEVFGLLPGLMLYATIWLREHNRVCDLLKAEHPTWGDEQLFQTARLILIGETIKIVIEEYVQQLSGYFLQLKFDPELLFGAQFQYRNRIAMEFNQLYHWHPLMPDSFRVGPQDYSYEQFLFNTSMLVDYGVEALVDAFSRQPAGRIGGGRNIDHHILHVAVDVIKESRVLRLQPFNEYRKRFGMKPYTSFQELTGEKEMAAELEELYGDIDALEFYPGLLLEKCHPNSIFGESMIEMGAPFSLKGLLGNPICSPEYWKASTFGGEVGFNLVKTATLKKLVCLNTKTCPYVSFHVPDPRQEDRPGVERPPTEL
# COX-2 = target: T3, COX-2 (Homo sapiens, UniProt P35354); test: biochemical; conditions: for inhibition at 10 µM: 3 replicates, read-out: % Inhibition of COX-2 ± SEM; for SI (selectivity index, COX-2/COX-1): at 10 μM
# T3 construct: purchased BioVision incorporated USA K548–100
# T3 sequence (P35354 18-604): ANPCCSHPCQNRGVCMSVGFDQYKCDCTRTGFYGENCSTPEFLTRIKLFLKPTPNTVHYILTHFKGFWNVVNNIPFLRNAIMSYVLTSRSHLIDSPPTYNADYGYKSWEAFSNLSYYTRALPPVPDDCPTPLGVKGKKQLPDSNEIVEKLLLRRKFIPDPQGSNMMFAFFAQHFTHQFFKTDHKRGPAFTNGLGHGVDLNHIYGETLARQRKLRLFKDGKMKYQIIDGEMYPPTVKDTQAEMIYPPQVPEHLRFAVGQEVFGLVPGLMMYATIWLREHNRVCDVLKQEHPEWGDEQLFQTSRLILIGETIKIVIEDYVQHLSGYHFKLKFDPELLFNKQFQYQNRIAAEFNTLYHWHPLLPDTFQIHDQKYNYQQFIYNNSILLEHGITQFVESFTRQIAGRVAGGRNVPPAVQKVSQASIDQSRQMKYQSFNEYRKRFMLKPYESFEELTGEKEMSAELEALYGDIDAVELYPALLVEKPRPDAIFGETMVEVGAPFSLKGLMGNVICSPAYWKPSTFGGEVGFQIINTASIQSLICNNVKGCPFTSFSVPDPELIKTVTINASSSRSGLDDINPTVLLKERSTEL
# TNF-α [9] = test: TNF-α inhibitory properties (ELISA), HCT116 cell lysate; assay type: cell-based, human; conditions: at 10 μM; for TNF-α pg/mL (± SEM) HCT116: control 95.74 ± 0.5
# TNF-α [10] = test: TNF-α inhibitory properties (ELISA), PaCa2 cell lysate; assay type: cell-based, human; conditions: at 10 μM; for TNF-α pg/mL (± SEM) PaCa2: control 111.8 ± 2.0
# TNF-α [11] = test: TNF-α inhibitory properties (ELISA), MCF7 cell lysate; assay type: cell-based, human; conditions: at 10 μM; for TNF-α pg/mL (± SEM) MCF7: control 83.26 ± 1.1
# [12] = MTT, 72 h incubation, HCT116 colon, read-out: IC50, μM ± SEM HCT116
# [13] = log of observed IC50 (μM), HCT116, read-out: Log(observed property) (converted)
# T1 sequence (P35968 20-1356): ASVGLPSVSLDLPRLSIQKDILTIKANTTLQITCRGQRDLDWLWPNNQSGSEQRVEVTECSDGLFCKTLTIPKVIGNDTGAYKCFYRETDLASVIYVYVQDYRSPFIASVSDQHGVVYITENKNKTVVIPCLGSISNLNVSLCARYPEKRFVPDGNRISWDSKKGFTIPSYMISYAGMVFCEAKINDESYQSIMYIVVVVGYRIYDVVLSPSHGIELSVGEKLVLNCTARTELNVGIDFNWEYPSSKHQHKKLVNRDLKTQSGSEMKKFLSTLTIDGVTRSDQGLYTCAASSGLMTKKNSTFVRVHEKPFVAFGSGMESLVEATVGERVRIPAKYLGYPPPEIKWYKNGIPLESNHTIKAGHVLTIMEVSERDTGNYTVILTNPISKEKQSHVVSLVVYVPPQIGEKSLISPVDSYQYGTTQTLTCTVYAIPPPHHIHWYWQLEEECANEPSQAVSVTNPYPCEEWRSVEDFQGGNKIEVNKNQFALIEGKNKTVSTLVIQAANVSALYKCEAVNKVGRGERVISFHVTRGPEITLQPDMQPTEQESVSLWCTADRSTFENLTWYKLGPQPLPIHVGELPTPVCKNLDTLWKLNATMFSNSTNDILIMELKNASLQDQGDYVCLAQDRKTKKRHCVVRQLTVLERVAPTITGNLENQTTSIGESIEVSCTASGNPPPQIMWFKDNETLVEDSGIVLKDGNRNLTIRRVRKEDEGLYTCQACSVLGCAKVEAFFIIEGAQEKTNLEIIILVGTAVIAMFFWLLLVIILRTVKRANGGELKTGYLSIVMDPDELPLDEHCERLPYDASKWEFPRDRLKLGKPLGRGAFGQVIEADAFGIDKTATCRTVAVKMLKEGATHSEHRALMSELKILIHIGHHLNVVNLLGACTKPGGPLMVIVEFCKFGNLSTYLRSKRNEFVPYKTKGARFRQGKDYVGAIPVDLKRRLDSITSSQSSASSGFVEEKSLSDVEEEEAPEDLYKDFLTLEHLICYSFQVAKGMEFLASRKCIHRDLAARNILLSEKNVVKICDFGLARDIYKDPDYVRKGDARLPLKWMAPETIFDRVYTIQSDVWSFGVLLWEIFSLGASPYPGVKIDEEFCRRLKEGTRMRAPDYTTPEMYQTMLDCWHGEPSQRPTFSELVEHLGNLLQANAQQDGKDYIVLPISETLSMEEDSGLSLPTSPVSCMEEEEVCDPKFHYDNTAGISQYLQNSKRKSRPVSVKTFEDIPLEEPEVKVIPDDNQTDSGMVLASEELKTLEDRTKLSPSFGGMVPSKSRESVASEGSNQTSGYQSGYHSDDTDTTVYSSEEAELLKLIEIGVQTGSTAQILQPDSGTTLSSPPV
Compound,"IC50 [1, 12] [µM]",SI (selectivity index) HCT116 [1],1/(observed property) [2],IC50 [2] [µM],SI (selectivity index) PaCa2 [2],IC50 [3] [µM],SI (selectivity index) MCF7 [3],IC50 [4] [µM],IC50 [5] [µM],inhibition at 10 µM (VEGFR-2 [6]) [%],VEGFR-2 pg/mL ± SEM HCT116 (VEGFR-2 [6]) [pg/mL],inhibition at 10 µM (VEGFR-2 [7]) [%],VEGFR-2 pg/mL ± SEM PaCa2 (VEGFR-2 [7]) [pg/mL],inhibition at 10 µM (VEGFR-2 [8]) [%],VEGFR-2 pg/mL ± SEM MCF7 (VEGFR-2 [8]) [pg/mL],inhibition at 10 µM (COX-1) [%],inhibition at 10 µM (COX-2) [%],"SI (selectivity index, COX-2/COX-1) (COX-2)",TNF-α % inhibition HCT116 (TNF-α [9]) [%],TNF-α pg/mL (± SEM) HCT116 (TNF-α [9]) [pg/mL],further results
"CCOP(=O)(OCC)N1C/C(=C\c2ccc(C)cc2)C(=O)C2(C1)C(c1ccc(C)cc1)CN(C)C21C(=O)Nc2ccc(F)cc21 (stereo not drawn) [Compound 17n, Diethyl (E)-(5-fluoro-1′-methyl-5′′-(4-methylbenzylidene)-2,4′′-dioxo-4′-(p-tolyl)dispiro[indoline-3,2′-pyrrolidine-3′,3′′-piperidin]-1′′-yl)phosphonate]",5.09 ± 0.191,> 9.8,0.06519,15.3 ± 0.911,> 3.3,4.37 ± 0.156,> 11.5,> 50,> 50,63.7,115.30 ± 2.2,87.5,40.70 ± 1.6,66.9,85.60 ± 0.7,50.6 ± 2.3,47.3 ± 1.4,1.08,9.7,86.47 ± 2.4,"IC50 [1, 13]: 5.09 µM; selectivity index (SI) [5]: high selectivity index; TNF-α % inhibition PaCa2 (TNF-α [10]): 13.9%; TNF-α pg/mL (± SEM) PaCa2 (TNF-α [10]): 96.3 ± 3.0 pg/mL; TNF-α % inhibition MCF7 (TNF-α [11]): 0.1%; TNF-α pg/mL (± SEM) MCF7 (TNF-α [11]): 83.17 ± 4.1 pg/mL"
"CCOP(=O)(OCC)N1C/C(=C\c2ccc(Cl)cc2)C(=O)C2(C1)C(c1ccc(Cl)cc1)CN(C)C21C(=O)Nc2ccc(Cl)cc21 (stereo not drawn) [Compound 17j, Diethyl (E)-[5-chloro-5′′-(4-chlorobenzylidene)-4′-(4-chlorophenyl)-1′-methyl-2,4′′-dioxodispiro[indoline-3,2′-pyrrolidine-3′,3′′-piperidin]-1′′-yl]phosphonate]",3.487 ± 0.033,> 14.3,0.1443,6.93 ± 0.337,> 7.2,3.87 ± 0.102,> 12.9,6.06 ± 0.157,> 50,80.3,62.50 ± 0.7,92.4,24.78 ± 0.3,82.7,44.80 ± 0.6,48.9 ± 1.5,53.5 ± 2.3,1.05,14.6,81.78 ± 1.4,"IC50 [1, 13]: 3.49 µM; SI (selectivity index) A549 [4]: > 8.3; selectivity index (SI) [5]: high selectivity index; TNF-α % inhibition PaCa2 (TNF-α [10]): 11.9%; TNF-α pg/mL (± SEM) PaCa2 (TNF-α [10]): 98.5 ± 3.1 pg/mL; TNF-α % inhibition MCF7 (TNF-α [11]): 0.5%; TNF-α pg/mL (± SEM) MCF7 (TNF-α [11]): 82.87 ± 4.5 pg/mL"
"CCOP(=O)(OCC)N1C/C(=C\c2cccs2)C(=O)C2(C1)C(c1cccs1)CN(C)C21C(=O)Nc2ccc(C)cc21 (stereo not drawn) [Compound 17t, Diethyl (E)-(1′,5-dimethyl-2,4′′-dioxo-4′-(thiophen-2-yl)-5′′-(thiophen-2-ylmethylene)dispiro[indoline-3,2′-pyrrolidine-3′,3′′-piperidin]-1′′-yl)phosphonate]",7.34 ± 0.161,3.5,0.1056,9.47 ± 0.097,2.7,6.45 ± 0.111,3.9,14.1 ± 0.201,25.4 ± 0.951,60.8,124.70 ± 1.3,64.8,115.00 ± 0.9,62.6,96.70 ± 1.2,49.2 ± 1.9,63.7 ± 1.7,1.29,14.7,81.64 ± 2.1,SI (selectivity index) A549 [4]: 1.8; TNF-α % inhibition PaCa2 (TNF-α [10]): 14.3%; TNF-α pg/mL (± SEM) PaCa2 (TNF-α [10]): 95.8 ± 2.5 pg/mL; TNF-α % inhibition MCF7 (TNF-α [11]): 0.4%; TNF-α pg/mL (± SEM) MCF7 (TNF-α [11]): 82.91 ± 3.8 pg/mL
